In patent publication US20150148234A1, “HERBICIDE-RESISTANT SUNFLOWER PLANTS WITH MULTIPLE HERBICIDE RESISTANT ALLELES OF AHASL1 AND METHODS OF USE” (NIDERA S.A., priority 2013, published 2015):

Tests used:
[1] = tested on: sunflower hybrid H4 (L1 × L4), A205V + A122T; assay: imazapyr whole plant greenhouse test (Example 2); type: in vivo
Procedure: (§1) Seeds were sown in Petri dishes and, after germination, plantlets were transplanted to pots of 10 cm of diameter in a potting media consisting of equal parts of vermiculite, soil and sand. Plants were grown in a greenhouse under natural light conditions supplemented with 400 W sodium halide lamps to provide a 16 hr daylength. Day/night temperatures were 25 and 20 ° C., respectively. At the V2-V4 stage (Schneiter & Miller (1981) Crop Sci. 21:901-903) 10 plants of each genotype were randomly assigned to each treatment consisting of eight imazapyr doses (0, 40, 80, 160, 240, 320, 400 and 480 g ai/ha, corresponding to untreated, 0.5×, 1×, 2×, 3×, 4×, 5× and 6×, respectively), and a zero-time biomass determination. Experiment was arranged as a randomized block design with a full factorial (sunflower line×treatment) arrangement of treatments and 10 replications.
(§2) On the day of herbicide application ten plants of each genotype were cut at the cotyledonal node and dried at 60° C. for 48 hrs for zero-time dried weight determination.
(§3) The remaining plants were maintained for 14 days after imazapyr treatment (DAT) and their height, Phytotoxicity Index (PI) and above ground dry biomass were determined Height was determined as the distance between the cotyledonal node and the apex of each plant. Above ground biomass data from each line were converted to biomass accumulation after application by subtracting the appropriate average zero- time biomass from each sample. Dry biomass data were converted to percentages of the untreated control plants within each line to allow direct comparisons between groups.

[2] = tested on: sunflower hybrid H2 (L3 × L4), A122T; assay: imazapyr whole plant greenhouse test (Example 2); type: in vivo
Procedure: as §1, §2, §3

[3] = tested on: sunflower hybrid H2 (L3*L4), 122/122; assay: field trial, imazapyr at V8 or R1 stage (Example 4); conditions: H2 122/122
[4] = tested on: sunflower hybrid H1 (L1*L2), 205/205; assay: as above; conditions: H1 205/205
[5] = tested on: sunflower line BTI-OL-M1511; assay: tolerance to imidazolinones, greenhouse (Example 8); conditions: 160 gr/ha at V4, fourteen days after treatment
[6] = tested on: lines carrying at least one allele A122T (A122T/A122T, A122T/A205V, A122/WT); assay: field trial, imazapyr at V8 or R1 stage (Example 4); conditions: 160 g ai/ha applied at R1; 14 DAT
[7] = tested on: sunflower line B770 (conventional); assay: tolerance to imidazolinones, greenhouse (Example 8)
[8] = tested on: AHAS enzyme of A122T heterozygous hybrid (cmsBTK47 × R731); assay: AHAS enzyme activity assay, Set 2; type: biochemical, sunflower; conditions: Set 2 (FIG. 14)
Procedure: (§4) Twelve greenhouse grown sunflower plants from each of the lines depicted in Table 21 were bulked and subjected to an AHAS enzyme activity assay via the method of Singh et al. (1988) Anal. Biochem. 171:173-179. Each activity assay was repeated twice. Due to the large number of samples, the experiment was split into two sets (Table 21).
(§5) Young, actively growing leaves, from four week old plantlets, were ground in a mortar and pestle with liquid N2 and extracted with a buffer composed of 100 mM Pyruvate, 200 mM KH2PO4, 20 mM MgCl2, 2 mM thiamine pyrophosphate and […]. Plant extracts were then spun through a 10 mL Zeba™ TM desalt spin column (Pierce #89893) as per the manufacturer's recommendation. The inhibition assay was performed as described by Singh et al. (1988) Anal. Biochem. 171:173-179. Assays were conducted in a 96-well format. Fifty μl of inhibitor was added to each well containing 50 μl of soluble protein extract to give final concentrations of 0.78, 1.56, 3.125, 6.25, 12.5, 25, 50 and 100 μM imazamox or 0.78, 1.56, 3.125, 6.25, 12.5, 25, 50 and 100 μM imazapyr. Zero herbicide controls were also included for each line. Reactions were processed as outlined by Singh et al. (1988) Anal. Biochem. 171:173-179. Absorbance was measured at 530 nm. AHAS activity, expressed as the mean of the absorbance values for each treatment, was presented as a percentage of the mean of the zero-herbicide controls.

[9] = tested on: AHAS enzyme of A205V homozygous (B7imi, IMISUN1); assay: AHAS enzyme activity assay, Set 2; type: biochemical, sunflower; conditions: Set 2 (FIG. 14)
Procedure: as §4, §5

[10] = tested on: AHAS enzyme of A122T homozygous (GM40); assay: AHAS enzyme activity assay, Set 2; type: biochemical, sunflower; conditions: Set 2 (FIG. 14)
Procedure: as §4, §5

[11] = 160 g ai/ha applied at R1, 14 DAT
[12] = 160 g ai/ha applied at R1, 21 DAT
[13] = 160 g ai/ha applied at V8, 14 DAT
[14] = 160 g ai/ha applied at V8, 21 DAT

CC(C)C1(C)N=C(c2ncccc2C(=O)O)NC1=O (stereo not drawn) [imazapyr]
Phytotoxicity Index (0-9) 14 days after treatment ([1]; dose 0.5 (0.5x, 40 g ai/ha)): 0.0 | biomass accumulation 14 days after treatment, % of untreated ([1]; dose 0.5 (0.5x, 40 g ai/ha)): 99.479% | plant height 14 days after treatment, % of untreated ([1]; dose 0.5 (0.5x, 40 g ai/ha)): 100.0% | Phytotoxicity Index (0-9) 14 days after treatment ([1]; dose 1 (1x, 80 g ai/ha)): 0.0 | biomass accumulation 14 days after treatment, % of untreated ([1]; dose 1 (1x, 80 g ai/ha)): 97.8% | plant height 14 days after treatment, % of untreated ([1]; dose 1 (1x, 80 g ai/ha)): 99.6% | Phytotoxicity Index (0-9) 14 days after treatment ([1]; dose 2 (2x, 160 g ai/ha)): 0.0 | biomass accumulation 14 days after treatment, % of untreated ([1]; dose 2 (2x, 160 g ai/ha)): 92.2% | plant height 14 days after treatment, % of untreated ([1]; dose 2 (2x, 160 g ai/ha)): 100.0% | Phytotoxicity Index (0-9) 14 days after treatment ([1]; dose 3 (3x, 240 g ai/ha)): 0.0 | biomass accumulation 14 days after treatment, % of untreated ([1]; dose 3 (3x, 240 g ai/ha)): 88.2% | plant height 14 days after treatment, % of untreated ([1]; dose 3 (3x, 240 g ai/ha)): 100.0% | Phytotoxicity Index (0-9) 14 days after treatment ([1]; dose 4 (4x, 320 g ai/ha)): 0.0 | biomass accumulation 14 days after treatment, % of untreated ([1]; dose 4 (4x, 320 g ai/ha)): 85.0% | plant height 14 days after treatment, % of untreated ([1]; dose 4 (4x, 320 g ai/ha)): 95.0% | Phytotoxicity Index (0-9) 14 days after treatment ([1]; dose 5 (5x, 400 g ai/ha)): 0.2 | biomass accumulation 14 days after treatment, % of untreated ([1]; dose 5 (5x, 400 g ai/ha)): 78.7% | plant height 14 days after treatment, % of untreated ([1]; dose 5 (5x, 400 g ai/ha)): 87.2% | Phytotoxicity Index (0-9) 14 days after treatment ([1]; dose 6 (6x, 480 g ai/ha)): 0.0 | biomass accumulation 14 days after treatment, % of untreated ([1]; dose 6 (6x, 480 g ai/ha)): 71.8% | plant height 14 days after treatment, % of untreated ([1]; dose 6 (6x, 480 g ai/ha)): 65.5% | Phytotoxicity Index (0-9) 14 days after treatment ([2]; dose 0.5 (0.5x, 40 g ai/ha)): 0.5 | biomass accumulation 14 days after treatment, % of untreated ([2]; dose 0.5 (0.5x, 40 g ai/ha)): 100% | plant height 14 days after treatment, % of untreated ([2]; dose 0.5 (0.5x, 40 g ai/ha)): 99.2% | Phytotoxicity Index (0-9) 14 days after treatment ([2]; dose 1 (1x, 80 g ai/ha)): 0.5 | biomass accumulation 14 days after treatment, % of untreated ([2]; dose 1 (1x, 80 g ai/ha)): 97.2% | plant height 14 days after treatment, % of untreated ([2]; dose 1 (1x, 80 g ai/ha)): 98.6% | Phytotoxicity Index (0-9) 14 days after treatment ([2]; dose 2 (2x, 160 g ai/ha)): 0.5 | biomass accumulation 14 days after treatment, % of untreated ([2]; dose 2 (2x, 160 g ai/ha)): 97.9% | plant height 14 days after treatment, % of untreated ([2]; dose 2 (2x, 160 g ai/ha)): 100.3% | Phytotoxicity Index (0-9) 14 days after treatment ([2]; dose 3 (3x, 240 g ai/ha)): 0.5 | biomass accumulation 14 days after treatment, % of untreated ([2]; dose 3 (3x, 240 g ai/ha)): 98.2% | plant height 14 days after treatment, % of untreated ([2]; dose 3 (3x, 240 g ai/ha)): 99.6% | Phytotoxicity Index (0-9) 14 days after treatment ([2]; dose 4 (4x, 320 g ai/ha)): 0.5 | biomass accumulation 14 days after treatment, % of untreated ([2]; dose 4 (4x, 320 g ai/ha)): 97.8% | plant height 14 days after treatment, % of untreated ([2]; dose 4 (4x, 320 g ai/ha)): 101.0% | Phytotoxicity Index (0-9) 14 days after treatment ([2]; dose 5 (5x, 400 g ai/ha)): 0.5 | biomass accumulation 14 days after treatment, % of untreated ([2]; dose 5 (5x, 400 g ai/ha)): 85.1% | plant height 14 days after treatment, % of untreated ([2]; dose 5 (5x, 400 g ai/ha)): 87.0% | Phytotoxicity Index (0-9) 14 days after treatment ([2]; dose 6 (6x, 480 g ai/ha)): 0.5 | biomass accumulation 14 days after treatment, % of untreated ([2]; dose 6 (6x, 480 g ai/ha)): 79.5% | plant height 14 days after treatment, % of untreated ([2]; dose 6 (6x, 480 g ai/ha)): 79.6% | Mean Phytotoxicity Index (0-50) [3, 11]: 2.3 | Mean Phytotoxicity Index (0-50) [3, 12]: 1.7 | Mean Phytotoxicity Index (0-50) [3, 13]: 5 | Mean Phytotoxicity Index (0-50) [3, 14]: 1 | Mean Phytotoxicity Index (0-50) [4, 11]: 35 | Mean Phytotoxicity Index (0-50) [4, 12]: 37.7 | Mean Phytotoxicity Index (0-50) [4, 13]: 6 | Mean Phytotoxicity Index (0-50) [4, 14]: 3 | Mean Phytotoxicity Index (0-9) [5]: 0.5 | PI (0-50), group with chlorosis symptoms only [6]: less than 11.7 | outcome of the herbicide treatment ([7]; 160 gr/ha at V4): killed | Mean Phytotoxicity Index (0-9) ([7]; 160 gr/ha at V4, fourteen days after treatment): 8.7

COCc1cnc(C2=NC(C)(C(C)C)C(=O)N2)c(C(=O)O)c1 (stereo not drawn) [imazamox]
AHAS activity, % of untreated control ([8]; 50 μM): 30% | AHAS activity, % of untreated control ([8]; 100 μM): 30% | AHAS activity, % of untreated control ([9]; 50 μM): 30% | AHAS activity, % of untreated control ([9]; 100 μM): 26% | AHAS activity, % of untreated control ([10]; 50 μM): 63% | AHAS activity, % of untreated control ([10]; 100 μM): 60%
